Converted amounts (≈) assume the structure as drawn.
Columns and labels:
[1] = test system: K562/ADR (K562adr, drug-resistant chronic myeloid leukemia) cells; experiment: MTT cell growth inhibition, leukemia cells; format: cell-based; settings: Homo sapiens, K562/ADR, 72 h, MTT; for IC50: read-out: IC50; for IC90: read-out: IC90
How it was run: (§1)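 Growth inhibition is assessed by MTT after leukemia cells, plated at 6000 per well in RPMI-1640 containing 10% fetal bovine serum, are exposed for 72 hours to graded compound concentrations added the day after plating.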

[2] = test system: NB4 (acute promyelocytic leukemia) cells; experiment: MTT cell growth inhibition, leukemia cells; format: cell-based; settings: Homo sapiens, NB4, 72 h, MTT; for IC50: read-out: IC50; for IC90: read-out: IC90
How it was run: as §1

[3] = test system: Hep G2 (human liver cancer) cells; experiment: MTT cell growth inhibition, solid tumor cells; format: cell-based; settings: for IC50 / IC90: Homo sapiens, HepG2, Hep G2, 72 h, MTT; for IC50: read-out: IC50; for IC90: read-out: IC90
How it was run: (§2)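 Exposure lasted 72 h, following 24 h growth of 6000 cells/well in DMEM high glucose containing 10% FBS at 37 °C in 5% CO2; endpoint was MTT-based viable cell concentration across tested compound concentrations.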

[4] = test system: U87-MG (malignant glioma) cells; experiment: MTT cell growth inhibition, solid tumor cells; format: cell-based; settings: Homo sapiens, U-87 MG, U87-MG, 72 h, MTT; for IC50: read-out: IC50; for IC90: read-out: IC90
How it was run: as §2

[5] = test system: MGC-803 (human gastric cancer) cells; experiment: MTT cell growth inhibition, solid tumor cells; format: cell-based; settings: MGC-803, 72 h, MTT; for IC50: read-out: IC50; for IC90: read-out: IC90
How it was run: as §2

[6] = test system: A549 (human lung cancer) cells; experiment: MTT cell growth inhibition, solid tumor cells; format: cell-based; settings: Homo sapiens, A549, 72 h, MTT; for IC50: read-out: IC50; for IC90: read-out: IC90
How it was run: as §2

[7] = test system: RKO (human colon adenocarcinoma) cells; experiment: MTT cell growth inhibition, solid tumor cells; format: cell-based; settings: Homo sapiens, RKO, 72 h, MTT; for IC50: read-out: IC50; for IC90: read-out: IC90
How it was run: as §2

[8] = test system: Becap-37 (human breast cancer) cells; experiment: MTT cell growth inhibition, solid tumor cells; format: cell-based; settings: for IC50 / IC90: Homo sapiens, Becap-37, 72 h, MTT; for IC50: read-out: IC50; for IC90: read-out: IC90
How it was run: as §2

[9] = test system: Hela (human cervical cancer) cells; experiment: MTT cell growth inhibition, solid tumor cells; format: cell-based; settings: Homo sapiens, Hela, 72 h, MTT; for IC50: read-out: IC50; for IC90: read-out: IC90
How it was run: as §2

[10] = test system: MG-63 (osteosarcoma) cells; experiment: MTT cell growth inhibition, solid tumor cells; format: cell-based; settings: Homo sapiens, MG-63, 72 h, MTT; for IC50: read-out: IC50; for IC90: read-out: IC90
How it was run: as §2

[11] = test system: Hep-2 (laryngeal carcinoma) cells; experiment: MTT cell growth inhibition, solid tumor cells; format: cell-based; settings: Homo sapiens, Hep-2, 72 h, MTT; for IC50: read-out: IC50; for IC90: read-out: IC90
How it was run: as §2

tumor = experiment: Antitumor activity compared with fangchinoline, overall statement; format: cell-based; settings: tumor type not specified
[12] = test system: RPMI 8226 (multiple myeloma) cells; experiment: MTT cell growth inhibition, multiple myeloma cells; format: cell-based, human; settings: Homo sapiens, RPMI 8226, 72 h, MTT; for IC50: read-out: IC50; for IC90: read-out: IC90
How it was run: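 RPMI 8226 myeloma cells, 6000 per well in RPMI-1640 with 10% FBS, were dosed with fangchinoline derivatives at several concentrations the day after seeding. Incubation ran 72 h at 37° C in 5% CO2, then viable cells were measured by MTT.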

[13] = test system: CNE (nasopharyngeal carcinoma) cells; experiment: MTT cell growth inhibition, solid tumor cells; format: cell-based, human; settings: for IC50 / IC90: Homo sapiens, CNE, 72 h, MTT; for IC50: read-out: IC50; for IC90: read-out: IC90
How it was run: as §2

[14] = test system: SK-OV-3 (ovarian cancer) cells; experiment: MTT cell growth inhibition, solid tumor cells; format: cell-based, human; settings: Homo sapiens, SK-OV-3, 72 h, MTT; for IC50: read-out: IC50; for IC90: read-out: IC90
How it was run: as §2

[15] = test system: PANC-1 (pancreatic cancer) cells; experiment: MTT cell growth inhibition, solid tumor cells; format: cell-based, human; settings: for IC50 / IC90: Homo sapiens, PANC-1, 72 h, MTT; for IC50: read-out: IC50; for IC90: read-out: IC90
How it was run: as §2

[16] = test system: PC-3 (prostate cancer) cells; experiment: MTT cell growth inhibition, solid tumor cells; format: cell-based, human; settings: Homo sapiens, PC-3, 72 h, MTT; for IC50: read-out: IC50; for IC90: read-out: IC90
How it was run: as §2

[17] = test system: CaEs-17 (esophageal cancer) cells; experiment: MTT cell growth inhibition, solid tumor cells; format: cell-based, human; settings: for IC50 / IC90: Homo sapiens, CaEs17, CaEs-17, 72 h, MTT; for IC50: read-out: IC50; for IC90: read-out: IC90
How it was run: as §2

[18] = relative to fangchinoline, Table 2

SMILES | IC50 [1] [µg/mL] | IC90 [1] [µg/mL] | IC50 [2] [µg/mL] | IC90 [2] [µg/mL] | IC50 [3] [µg/mL] | IC90 [3] [µg/mL] | IC50 [4] [µg/mL] | IC90 [4] [µg/mL] | IC50 [5] [µg/mL] | IC90 [5] [µg/mL] | IC50 [6] [µg/mL] | IC90 [6] [µg/mL] | IC50 [7] [µg/mL] | IC90 [7] [µg/mL] | IC50 [8] [µg/mL] | IC90 [8] [µg/mL] | IC50 [9] [µg/mL] | IC90 [9] [µg/mL] | IC50 [10] [µg/mL] | IC90 [10] [µg/mL] | further results
COc1ccc2cc1Oc1ccc(cc1)C[C@H]1c3cc(c(OC)cc3CCN1C)Oc1c(OCC(O)CNCC3CC3)c(OC)cc3c1[C@H](C2)N(C)CC3 (stereo partly drawn) [BS-FC-405] | 0.6 (≈ 0.815 µM) | 1.73 (≈ 2.35 µM) | 0.47 (≈ 0.639 µM) | 0.95 (≈ 1.29 µM) | 0.71 (≈ 0.965 µM) | 1.7 (≈ 2.31 µM) | 0.7 (≈ 0.951 µM) | 1.41 (≈ 1.92 µM) | 0.88 (≈ 1.2 µM) | 3.59 (≈ 4.88 µM) | 1.94 (≈ 2.64 µM) | 5.89 (≈ 8 µM) | 0.46 (≈ 0.625 µM) | 0.92 (≈ 1.25 µM) | 0.74 (≈ 1.01 µM) | 1.88 (≈ 2.55 µM) | 1.25 (≈ 1.7 µM) | 2 (≈ 2.72 µM) | 0.96 (≈ 1.3 µM) | 1.7 (≈ 2.31 µM) | anti-Hep G2 activity increase over fangchinoline [3, 18]: ~3 fold; anti-Becap37 activity increase over fangchinoline [8, 18]: ~3 fold; IC50 [11]: 1.67 µg/mL (≈ 2.27 µM); IC90 [11]: 4.81 µg/mL (≈ 6.54 µM); antitumor activity compared with that of fangchinoline (tumor): significantly superior; IC50 [12]: 0.05 µg/mL (≈ 0.0679 µM); IC90 [12]: 0.44 µg/mL (≈ 0.598 µM); IC50 [13]: 0.8 µg/mL (≈ 1.09 µM); IC90 [13]: 1.7 µg/mL (≈ 2.31 µM); anti-CNE activity increase over fangchinoline [13, 18]: ~3 fold; IC50 [14]: 1.54 µg/mL (≈ 2.09 µM); IC90 [14]: 3.5 µg/mL (≈ 4.76 µM); IC50 [15]: 1.14 µg/mL (≈ 1.55 µM); IC90 [15]: 3.34 µg/mL (≈ 4.54 µM); anti-PANC-1 activity increase over fangchinoline [15, 18]: ~3 fold; IC50 [16]: 2.53 µg/mL (≈ 3.44 µM); IC90 [16]: 3.69 µg/mL (≈ 5.01 µM); IC50 [17]: 0.49 µg/mL (≈ 0.666 µM); IC90 [17]: 1.95 µg/mL (≈ 2.65 µM); anti-CaEs-17 activity increase over fangchinoline [17, 18]: ~4 fold
C=CCN(C)CC(O)COc1c(OC)cc2c3c1Oc1cc4c(cc1OC)CCN(C)[C@H]4Cc1ccc(cc1)Oc1cc(ccc1OC)C[C@@H]3N(C)CC2 (stereo partly drawn) [BS-FC-409] | 0.16 (≈ 0.217 µM) | 1.38 (≈ 1.88 µM) | 0.59 (≈ 0.802 µM) | 1.76 (≈ 2.39 µM) | 1.27 (≈ 1.73 µM) | 3.24 (≈ 4.4 µM) | 1.07 (≈ 1.45 µM) | 2.68 (≈ 3.64 µM) | 0.94 (≈ 1.28 µM) | 16 (≈ 21.7 µM) | 2.98 (≈ 4.05 µM) | 8.43 (≈ 11.5 µM) | 0.65 (≈ 0.883 µM) | 1.27 (≈ 1.73 µM) | 1.44 (≈ 1.96 µM) | 4.8 (≈ 6.52 µM) | 1.05 (≈ 1.43 µM) | 3.52 (≈ 4.78 µM) | 1.1 (≈ 1.49 µM) | 1.99 (≈ 2.7 µM) | IC50 [11]: 1.79 µg/mL (≈ 2.43 µM); IC90 [11]: 5.54 µg/mL (≈ 7.53 µM); antitumor activity compared with that of fangchinoline (tumor): significantly superior; IC50 [12]: 0.04 µg/mL (≈ 0.0544 µM); IC90 [12]: 0.5 µg/mL (≈ 0.679 µM); IC50 [13]: 0.95 µg/mL (≈ 1.29 µM); IC90 [13]: 3.94 µg/mL (≈ 5.35 µM); IC50 [14]: 2.82 µg/mL (≈ 3.83 µM); IC90 [14]: 9.85 µg/mL (≈ 13.4 µM); IC50 [15]: 3.17 µg/mL (≈ 4.31 µM); IC90 [15]: 7.14 µg/mL (≈ 9.7 µM); IC50 [16]: 2.89 µg/mL (≈ 3.93 µM); IC90 [16]: 5.8 µg/mL (≈ 7.88 µM); IC50 [17]: 0.91 µg/mL (≈ 1.24 µM); IC90 [17]: 4.9 µg/mL (≈ 6.66 µM)
